The results in this text go back to US20150316556A1, “SSEA4 AND ST3GAL2 AS CHEMOTHERAPEUTIC DRUG RESPONSE BIOMARKERS” (Miltenyi Biotech GmbH, priority 2014, published 2015).

Experiment [1] deals with primary tumor cell line derived from model HBCx-17 (suspension and adherent cells). As to the kind of experiment: IC50 values of commonly used chemotherapeutic drugs on suspension versus adherent subpopulations of a primary tumor cell line. The class given is cell-based, human. Conditions: HBCx-17 derived primary tumor cell line; n=3; suspension vs adherent subpopulation.
Experiment [2] deals with epithelial breast cell line MCF10A. Kind of experiment: EMT induction in epithelial breast cell line by TGFβ1. The class given is cell-based, human. As for the experimental part: The expression of SSEA4 was evaluated upon EMT induction. To induce a mesenchymal transition, the epithelial breast cell line MCF10A was treated with TGFβ1 at concentrations of 10 and 20 ng/ml. […] F-actin was stained by Phalloidin to visualize the cytoskeleton architecture. […] The fraction of SSEA4 positive cells was increased upon EMT induction (FIG. 8E) verifying that expression of SSEA4 indicates a more mesenchymal phenotype.
The results of the mRNA and the miRNA analysis strongly indicate that the expression of SSEA4 correlates with a more mesenchymal phenotype. […] To induce a mesenchymal transition, the epithelial breast cell line MCF10A was treated with TGFβ1 at concentrations of 10 and 20 ng/ml. […] Previously known key EMT markers like EpCAM, E-cadherin, Vimentin, and Fibronectin were regulated as expected, proving the efficiency of EMT induction using our method (FIG. 8 and data not shown). […] Strikingly, the fraction of SSEA4 positive cells was increased upon EMT induction verifying the correlation between SSEA4 expression and a more mesenchymal phenotype (FIG. 8).

In the case of `COc1cc([C@@H]2c3cc4c(cc3[C@@H](O[C@@H]3O[C@@H]5CO[C@@H](C)O[C@H]5[C@H](O)[C@H]3O)[C@H]3COC(=O)[C@H]23)OCO4)cc(OC)c1O` [Etoposide], in experiment [1], the “IC50 values of suspension cells (higher SSEA4 expression) compared to adherent cells” value (“IC50 values … compared to adherent cells” below) is “no difference”.

As for `CC(=O)O[C@@]12CO[C@@H]1C[C@H](O)[C@@]1(C)C(=O)[C@H](O)C3=C(C)[C@@H](OC(=O)[C@H](O)[C@@H](NC(=O)OC(C)(C)C)c4ccccc4)C[C@@](O)([C@@H](OC(=O)c4ccccc4)[C@H]21)C3(C)C` [Docetaxel], the “IC50 values … compared to adherent cells” value in experiment [1] was “higher IC50 values”.

Consider `CCc1c2c(nc3ccc(OC(=O)N4CCC(N5CCCCC5)CC4)cc13)-c1cc3c(c(=O)n1C2)COC(=O)[C@]3(O)CC` [Irinotecan], for which the “IC50 values … compared to adherent cells” value in experiment [1] is reported as “decreased IC50 values”.

Turning to `COc1cccc2c1C(=O)c1c(O)c3c(c(O)c1C2=O)C[C@@](O)(C(=O)CO)C[C@@H]3O[C@H]1C[C@H](N)[C@H](O)[C@H](C)O1` [doxorubicin], the “IC50 values … compared to adherent cells” value in experiment [1] is “higher IC50 values”.

Take “TGFβ1: TGFβ1 used to induce a mesenchymal transition (EMT) in MCF10A cells”: in experiment [2] (TGFβ1 10 and 20 ng/ml), the “cell morphology upon treatment” value is “almost all cells changed their morphology from a compacted colony type to an elongated fibroblastic shape”, the “epithelial marker E-cadherin expression upon treatment” value was “downregulated”, the “epithelial marker EpCAM expression upon treatment” value is listed as “downregulated” and the “fraction of SSEA4 positive cells upon EMT induction” value is reported as “increased”. Further, the “mesenchymal marker Fibronectin expression upon treatment” value in experiment [2] (TGFβ1 10 and 20 ng/ml) is on record as “upregulated”. In experiment [2] (TGFβ1, data not shown), the “invasive potential of treated cells” value is recorded as “strongly increased”.

In the case of `CC[C@@]1(O)C(=O)OCc2c1cc1n(c2=O)Cc2cc3c(CN(C)C)c(O)ccc3nc2-1` [Topotecan], in experiment [1], the “IC50 values … compared to adherent cells” value was “decreased IC50 values”.

On to `O=c1[nH]cc(F)c(=O)[nH]1` [5-Fluorouracil], for which the “IC50 values … compared to adherent cells” value in experiment [1] was “higher IC50 values”.
